The values that follow come from paper PMC9189076 (Oncogene, 2022).

Structures are written as SMILES.

One data set deals with IKZF1 and IKZF3. The data set is described as follows: IKZF1/IKZF3 degradation by immunoblotting in cells. The format is cell-based, human. To be noted: MV4;11, RS4;11 and other cell lines. A general note: A western blot detects proteins with antibodies after separation by electrophoresis.
Data set [1] concerns the target T1, WDR5 (Homo sapiens, UniProt P61964). The data set is described as follows: Isothermal titration calorimetry. The format is binding. To be noted: for binding to WDR5 (ITC, in words): MS169 compared to MS40. In general terms: In ITC the heat of successive injections is recorded.
For another data set, the system named is MLL-AF9 + AML PDX tumors. Kind of data set: MLL-AF9+ AML PDX subcutaneous xenograft efficacy. Type of data set: in vivo, NSG-SGM3 mice. The note with it: i.p. once a day, 5 days per week; MS40 100 mg/kg, MS169 34 mg/kg, MS40N2 100 mg/kg.
In data set [2] the target is VHL–Elongin C–Elongin B ternary complex (VCB) (Homo sapiens, UniProt P40337). Kind of data set: ITC, binding to VHL E3 ligase complex. The note with it: compared to MS40.
Data set [3] in a line: Compound concentrations in plasma and tumor of PDX-bearing mice. Type of data set: in vivo, NSG-SGM3 mice. The note with it: two hours post last dose; MS40 100 mg/kg, MS169 34 mg/kg, MS40N2 100 mg/kg.
A further data set relates to H3K4me2. The data set is described as follows: Global histone methylation immunoblotting in MV4. Type of data set: cell-based, human. To be noted: MV4;11 cells, 0.5 μM, 4 days.
For data set [4], the target named is CRBN's C-terminal thalidomide binding domain (CRBN-TBD) (Homo sapiens, UniProt Q96SW2). Kind of data set: ITC, binding to CRBN thalidomide-binding domain.
Another data set deals with MV4;11 cells. The data set is described as follows: RNA-seq transcriptomic profiling in MV4. The format is cell-based, human.
The target in data set [5] is T1, WDR5. To be noted: five lines of MLL-r AML and eight lines of breast cancer, 18 h.
The target in another data set is LIMD1 (Homo sapiens, UniProt Q9UGP4). Kind of data set: LIMD1 degradation by immunoblotting in MV4. The note with it: MV4;11 and RS4;11 cells, 0.5 μM, 18 h. The format is cell-based.
For another data set, the target named is CRBN-TBD. The note with it: read-out: KD, affinity to CRBN-TBD; cited from earlier work.
Data set [6] has as its system BT549 and SUM149 breast cancer cells. The data set is described as follows: Anti-proliferative effect in breast cancer cells. The format is cell-based. To be noted: MS40 relative to MS40N1 and OICR-9429.

Sequence of CRBN's C-terminal thalidomide binding domain (CRBN-TBD) (Q96SW2 318-426 limits assumed): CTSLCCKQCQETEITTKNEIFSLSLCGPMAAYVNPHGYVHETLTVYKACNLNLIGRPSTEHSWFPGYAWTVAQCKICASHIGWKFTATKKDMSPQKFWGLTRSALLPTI
Sequence of LIMD1 (Q9UGP4 whole entry): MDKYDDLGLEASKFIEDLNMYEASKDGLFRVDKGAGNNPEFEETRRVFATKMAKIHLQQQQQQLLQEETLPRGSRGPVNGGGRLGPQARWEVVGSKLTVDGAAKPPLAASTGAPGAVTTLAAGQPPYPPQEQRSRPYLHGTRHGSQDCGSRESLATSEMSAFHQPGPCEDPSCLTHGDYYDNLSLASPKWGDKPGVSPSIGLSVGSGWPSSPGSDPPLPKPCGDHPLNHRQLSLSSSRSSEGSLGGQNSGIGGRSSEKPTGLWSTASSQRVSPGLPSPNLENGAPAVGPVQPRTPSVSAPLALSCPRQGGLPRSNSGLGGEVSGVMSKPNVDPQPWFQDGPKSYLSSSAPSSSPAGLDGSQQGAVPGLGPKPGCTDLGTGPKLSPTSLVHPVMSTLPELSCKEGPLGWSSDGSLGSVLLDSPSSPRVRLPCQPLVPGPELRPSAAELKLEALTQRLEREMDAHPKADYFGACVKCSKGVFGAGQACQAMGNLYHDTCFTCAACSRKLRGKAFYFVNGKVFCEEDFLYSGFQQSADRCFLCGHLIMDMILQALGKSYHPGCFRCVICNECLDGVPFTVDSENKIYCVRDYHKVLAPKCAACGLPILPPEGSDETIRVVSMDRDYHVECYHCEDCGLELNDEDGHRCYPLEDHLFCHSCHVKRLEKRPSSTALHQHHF
Sequence of VHL–Elongin C–Elongin B ternary complex (VCB) (P40337 54-213 limits assumed): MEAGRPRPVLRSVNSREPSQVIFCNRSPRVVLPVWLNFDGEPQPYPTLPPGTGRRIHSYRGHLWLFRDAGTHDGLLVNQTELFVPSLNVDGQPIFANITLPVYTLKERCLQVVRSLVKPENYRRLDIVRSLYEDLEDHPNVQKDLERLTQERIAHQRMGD
Sequence of VHL–Elongin C–Elongin B ternary complex (VCB) (Q15369 17-112 partner limits assumed): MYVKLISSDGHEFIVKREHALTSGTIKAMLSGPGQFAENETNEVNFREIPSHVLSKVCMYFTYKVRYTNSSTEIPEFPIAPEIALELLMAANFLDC
Sequence of VHL–Elongin C–Elongin B ternary complex (VCB) (Q15370 1-104 partner limits assumed): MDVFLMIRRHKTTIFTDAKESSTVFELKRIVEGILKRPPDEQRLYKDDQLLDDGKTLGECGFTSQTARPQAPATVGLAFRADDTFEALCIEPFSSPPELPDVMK

Turning to `Cc1ncsc1-c1ccc(CNC(=O)[C@@H]2C[C@@H](O)CN2C(=O)[C@@H](NC(=O)CCCCCCCCCC(=O)NCCN2CCN(Cc3cccc(-c4ccc(N5CCN(C)CC5)c(NC(=O)c5c[nH]c(=O)cc5C(F)(F)F)c4)c3)CC2)C(C)(C)C)cc1` [MS169], in the data set with IKZF1 and IKZF3, the “IKZF1/IKZF3 degradation (immunoblot)” value was “without affecting IKZF1/3”. For the same compound, the “binding to WDR5 (ITC, in words)” value on WDR5 [1] was “comparable binding affinities to WDR5 and E3 ligase”. Besides, in the data set with MLL-AF9 + AML PDX tumors, the “PDX tumor growth compared to vehicle” value was “no detected inhibitory effects on PDX tumor growth”. Besides, in data set [2], the “binding to E3 ligase (ITC, in words)” value was “comparable binding affinities to WDR5 and E3 ligase”. The “detected concentrations in plasma and tumor samples post-treatment” value in [3] is listed as “higher than those of MS40”.
Broadly, the Kd is the equilibrium constant for the complex coming apart. Consider `CN1CCN(c2ccc(-c3cccc(CN4CCN(CCNC(=O)CCCCCCCNc5cccc6c5C(=O)N(C5CCC(=O)N(C)C5=O)C6=O)CC4)c3)cc2NC(=O)c2c[nH]c(=O)cc2C(F)(F)F)CC1` (stereo not shown) [MS40N1], for which the “fold lower binding affinity to WDR5 compared to OICR-9429” value at WDR5 [1] (ITC) amounted to 4 fold. Moreover, at WDR5 [1] (read-out: KD, binding affinity to WDR5, ITC, 25 °C, mean ± SD of three experiments), the Kd is 0.13 ± 0.001 µM. For the same compound, the “global H3K4me2 level” value in the data set on H3K4me2 is listed as “but not OICR-9429 or MS40N1”. In addition, the “KD, affinity to CRBN-TBD” value in [4] (25 °C, mean ± SD) is “no binding was observed”. Besides, in the data set with MV4;11 cells, the “gene-expression changes compared to DMSO (RNA-seq)” value is reported as “did not result in significant gene-expression changes”. Besides, the “WDR5 degradation in panel of cell lines” value at WDR5 [5] is “did not induce notable WDR5 reduction”.
Regarding `O=C(CCCCCCCNc1cccc2c1C(=O)N(C1CCC(=O)NC1=O)C2=O)NCCN1CCN(Cc2cccc(-c3ccc(N4CCOCC4)c(NC(=O)c4c[nH]c(=O)cc4C(F)(F)F)c3)c2)CC1` (stereo not shown) [MS40N2], in the data set with IKZF1 and IKZF3, the “IKZF1/IKZF3 degradation (immunoblot)” value is “induced degradation of IKZF1 and IKZF3”. Further, on WDR5 [1], the “binding to WDR5 (ITC, in words)” value was “not bind WDR5”. The “PDX tumor growth compared to vehicle” value with MLL-AF9 + AML PDX tumors is “no detected inhibitory effects on PDX tumor growth”. In data set [4], the “binding to CRBN (ITC, in words)” value is reported as “bind CRBN with a similar affinity as MS40”. For the same compound, the “detected concentrations in plasma and tumor samples post-treatment” value in [3] is “higher than those of MS40”.
With `CN1CCN(c2ccc(-c3cccc(CN4CCOCC4)c3)cc2NC(=O)c2c[nH]c(=O)cc2C(F)(F)F)CC1` [OICR-9429], the “global H3K4me2 level” value in the data set on H3K4me2 is “but not OICR-9429 or MS40N1”.
As for `Nc1cccc2c1C(=O)N(C1CCC(=O)NC1=O)C2=O` (stereo not shown) [pomalidomide], the “IKZF1/IKZF3 degradation (immunoblot)” value with IKZF1 and IKZF3 is “led to degradation of IKZF1/3”. Besides, the “global H3K4me2 level” value with H3K4me2 was “did not affect global H3K4me2”. For the same compound, on LIMD1, the “LIMD1 degradation (immunoblot)” value is reported as “but not LIMD1”. Moreover, the dissociation constant (Kd) on CRBN-TBD was 16 ± 4 µM. The “anti-proliferative effect in BT549 and SUM149” value in data set [6] is listed as “unaffected”.
